Here are results for three molecules from ChEMBL document CHEMBL2074278, “Temocaprilat, a novel angiotensin-converting enzyme inhibitor, is excreted in bile via an ATP-dependent active transporter (cMOAT) that is deficient in Eisai hyperbilirubinemic mutant rats (EHBR)” (J Pharmacol Exp Ther, 1997).

What all share (type): functional, cell membranes, Sprague-Dawley, Bile canalicular membrane vesicle
Data set [1] addresses T1, ATP-binding cassette sub-family C member 2 (Rattus norvegicus, UniProt Q63120). Put plainly: TP_TRANSPORTER: inhibition of Temocaprilat uptake in bile canalicular membrane vesicles from SD rat.
Data set [2] addresses T1, ATP-binding cassette sub-family C member 2. In words: TP_TRANSPORTER: inhibition of DNP-SG uptake in bile canalicular membrane vesicles from SD rat.
Substrate in data set [3]: O=C(O)CN1C[C@@H](c2cccs2)SC[C@H](N[C@@H](CCc2ccccc2)C(=O)O)C1=O
Put plainly: TP_TRANSPORTER: uptake in bile canalicular membrane vesicles from SD rat.

The molecule `N[C@@H](CCC(=O)N[C@H](CSc1ccc([N+](=O)[O-])cc1[N+](=O)[O-])C(=O)NCC(=O)O)C(=O)O` displayed a Ki in data set [1] of 25.8 µM. For the molecule `O=C(O)CN1C[C@@H](c2cccs2)SC[C@H](N[C@@H](CCc2ccccc2)C(=O)O)C1=O` [TEMOCAPRILAT], the affinity in data set [2] corresponds to a Ki of 343 µM.

B1: ATP-binding cassette sub-family C member 2 (Rattus norvegicus) (protein)
chain: MDKFCNSTFWDLSLLESPEADLPLCFEQTVLVWIPLGFLWLLAPWQLYSVYRSRTKRSSITKFYLAKQVFVVFLLILAAIDLSLALTEDTGQATVPPVRYTNPILYLCTWLLVLAVQHSRQWCVRKNSWFLSLFWILSVLCGVFQFQTLIRALLKDSKSNMAYSYLFFVSYGFQIVLLILTAFSGPSDSTQTPSVTASFLSSITFSWYDRTVLKGYKHPLTLEDVWDIDEGFKTRSVTSKFEAAMTKDLQKARQAFQRRLQKSQRKPEATLHGLNKKQSQSQDVLVLEEAKKKSEKTTKDYPKSWLIKSLFKTFHVVILKSFILKLIHDLLVFLNPQLLKLLIGFVKSSNSYVWFGYICAILMFAVTLIQSFCLQSYFQHCFVLGMCVRTTVMSSIYKKALTLSNLARKQYTIGETVNLMSVDSQKLMDATNYMQLVWSSVIQITLSIFFLWRELGPSILAGVGVMVLLIPVNGVLATKIRNIQVQNMKNKDKRLKIMNEILSGIKILKYFAWEPSFQEQVQGIRKKELKNLLRFGQLQSLLIFILQITPILVSVVTFSVYVLVDSANVLNAEKAFTSITLFNILRFPLSMLPMVTSSILQASVSVDRLERYLGGDDLDTSAIRRVSNFDKAVKFSEASFTWDPDLEATIQDVNLDIKPGQLVAVVGTVGSGKSSLVSAMLGEMENVHGHITIQGSTAYVPQQSWIQNGTIKDNILFGSEYNEKKYQQVLKACALLPDLEILPGGDMAEIGEKGINLSGGQKQRVSLARAAYQDADIYILDDPLSAVDAHVGKHIFNKVVGPNGLLAGKTRIFVTHGIHFLPQVDEIVVLGKGTILEKGSYRDLLDKKGVFARNWKTFMKHSGPEGEATVNNDSEAEDDDDGLIPTMEEIPEDAASLAMRRENSLRRTLSRSSRSSSRRGKSLKNSLKIKNVNVLKEKEKEVEGQKLIKKEFVETGKVKFSIYLKYLQAVGWWSILFIILFYGLNNVAFIGSNLWLSAWTSDSDNLNGTNNSSSHRDMRIGVFGALGLAQGICLLISTLWSIYACRNASKALHGQLLTNILRAPMRFFDTTPTGRIVNRFSGDISTVDDLLPQTLRSWMMCFFGIAGTLVMICMATPVFAIIIIPLSILYISVQVFYVATSRQLRRLDSVTKSPIYSHFSETVTGLPIIRAFEHQQRFLAWNEKQIDINQKCVFSWITSNRWLAIRLELVGNLVVFCSALLLVIYRKTLTGDVVGFVLSNALNITQTLNWLVRMTSEAETNIVAVERISEYINVENEAPWVTDKRPPADWPRHGEIQFNNYQVRYRPELDLVLKGITCNIKSGEKVGVVGRTGAGKSSLTNCLFRILESAGGQIIIDGIDVASIGLHDLRERLTIIPQDPILFSGSLRMNLDPFNKYSDEEVWRALELAHLRSFVSGLQLGLLSEVTEGGDNLSIGQRQLLCLGRAVLRKSKILVLDEATAAVDLETDSLIQTTIRKEFSQCTVITIAHRLHTIMDSDKIMVLDNGKIVEYGSPEELLSNRGSFYLMAKEAGIENVNHTEL
As for B1, the Km in data set [3] worked out at 92.5 µM.

The term Ki denotes a measure of affinity in units of concentration, obtained from inhibition or displacement. Read a high Ki as weaker binding. By Km is commonly meant the concentration of substrate that gives half-maximal velocity.
